Patent publication US6482438B1, “Apparatus and process for preparing crystalline particles” (SmithKline Beecham Corporation, priority 1998, dated 2002)

What was measured:
[1] = Malvern laser diffraction particle sizing (Mastersizer X) of crystalline fluticasone propionate particles; format: physicochemical
Experimental: A continuous flow reaction cell with 2 diametrically opposite inlets at the bottom and a run-out ca. half way up the side of the vessel is used in the experiment. The drug substance (fluticasone propionate, FP) is dissolved in acetone (15 vol, 0.133 M) at elevated temperature (50-56° C.) and then allowed to cool to ambient temperature (20° C.). A solution of FP is then pumped using a peristaltic pump into one of the bottom inlets of the reaction cell. Water was similarly pumped via the other inlet from a water reservoir using a second pump.
Re-crystallisations are carried out from various mixtures of acetone and water (by altering the flow rates of each) as dictated by the parameters set out in the experimental design. Efficient mixing of the two streams is ensured with the aid of a non-grinding magnetic stirrer bar.
(§1) Before carrying out any particular crystallisation, the cell is pre-charged with a mixture of acetone/water (the ratio of each being the same as the relative pumping rates from the two reservoirs). By doing this, the relative concentrations of the water to acetone remains constant throughout the crystallisation. The tip of the sono-probe is arranged so that it is just above the inlet for the FP solution. When the magnetic stirrer, sono-probe and pumps are turned on, rapid onset of crystallisation takes place. A suspension of the crystallisation mixture exits via the overflow directly on to a filter funnel thus minimising the opportunity for further crystal growth.
(§2) Using the above set-up, the experiments set out in the experimental design shown below were carried out and the samples of damp solid harvested and dried in vacuo at ambient temperature. All the samples were sized using the Malvern laser diffraction particle sizer and the results analysed using multi-dimensional model fitting software (such as Design Expert 5).
Ultrasound Power is given as a percentage of maximum (50 W). Ultrasound frequency was 22 kHz.
(§3) Samples were analysed using Malvern laser diffraction particle sizing.
Instrument: Malvern Mastersizer X
Lens: 45 mm Reverse Fourier
Analysis: 0607 presentation code
(§4) Dispersant: Iso Octane / Lecithin 0.05% w/w
Pre dispersion: Sonicate for 10 seconds
(§5) One analysis per sample was carried out. The median particle size (D50), particle size at 90% undersize (D90) and particle size at 10% undersize (D10) were used as responses to characterise the medium, course, and fine particles. In addition a fourth response, uniformity index (Ul) was calculated as a measure of the breadth of the distribution.
Uniformity Index (Ul) is calculated as 100×D10/D90.

[2] = Malvern laser diffraction particle sizing (Mastersizer S) of crystalline salmeterol xinafoate particles; format: physicochemical; details: methanol solution 7 ml/min
Experimental: A continuous flow reaction cell with 2 diametrically opposite inlets at the bottom and a run-out ca. half way up the side of the vessel is used in the experiment. […] The drug substance (salmeterol xinafoate) is dissolved in methanol (6 vol) at elevated temperature
(65° C.). A solution of salmeterol xinafoate (0.276 M) is then pumped (a fixed rate of 7 ml/min) using a peristaltic pump into one of the bottom inlets of the reaction cell. Cold water was similarly pumped via the other inlet from a water reservoir using a second pump at rates as dictated by the experimental design.
Re-crystallisations are carried out from various mixtures of methanol and water as dictated by the parameters set out in the experimental design. Efficient mixing of the two streams is ensured with the aid of a non-grinding magnetic stirrer bar. The stirrer speed is maintained constant at all times. The stir speed is set at such a rate so as to induce a minimum amount of vortex.
as §1, with “methanol/water” for “acetone/water”, “methanol” for “acetone”, “salmeterol” for “FP”
as §2
Ultrasound Power is given as a percentage of maximum (600 W). Ultrasound frequency was 22 kHz.
as §3
Instrument: Malvern Mastersizer S
Lens: 300 mm Reverse Fourier
Analysis: presentation code 30 GE
as §4
Pre dispersion: Sonicate for 1 Minute
as §5, with “10 %” for “10%”
Uniformity Index (Ul) is calculated as 100×D 10/D90.

[3] = Run 1: water 24 ml/min, acetone solution 3.50 ml/min, stirring 40.00 %, ultrasound 0.00 % of 50 W
[4] = Run 2: water 18 ml/min, acetone solution 5.25 ml/min, stirring 20.00 %, ultrasound 20.00 % of 50 W
[5] = Run 3: water 24 ml/min, acetone solution 3.50 ml/min, stirring 0.00 %, ultrasound 40.00 % of 50 W
[6] = Run 4: water 12 ml/min, acetone solution 7.00 ml/min, stirring 0.00 %, ultrasound 40.00 % of 50 W
[7] = Run 5: water 24 ml/min, acetone solution 7.00 ml/min, stirring 40.00 %, ultrasound 40.00 % of 50 W
[8] = Run 6: water 18 ml/min, acetone solution 5.25 ml/min, stirring 20.00 %, ultrasound 20.00 % of 50 W
[9] = Run 7: water 12 ml/min, acetone solution 3.50 ml/min, stirring 0.00 %, ultrasound 0.00 % of 50 W
[10] = Run 8: water 12 ml/min, acetone solution 7.00 ml/min, stirring 40.00 %, ultrasound 0.00 % of 50 W
[11] = Run 9: water 12 ml/min, acetone solution 3.50 ml/min, stirring 40.00 %, ultrasound 40.00 % of 50 W
[12] = Run 10: water 24 ml/min, acetone solution 7.00 ml/min, stirring 0.00 %, ultrasound 0.00 % of 50 W
[13] = Run 1: water 14 ml/min, ultrasound 10.00 % of 600 W
[14] = Run 2: water 56 ml/min, ultrasound 10.00 % of 600 W
[15] = Run 3: water 56 ml/min, ultrasound 90.00 % of 600 W
[16] = Run 4: water 56 ml/min, ultrasound 90.00 % of 600 W
[17] = Run 5: water 56 ml/min, ultrasound 10.00 % of 600 W
[18] = Run 6: water 14 ml/min, ultrasound 10.00 % of 600 W
[19] = Run 7: water 35 ml/min, ultrasound 50.00 % of 600 W
[20] = Run 8: water 14 ml/min, ultrasound 90.00 % of 600 W
[21] = Run 9: water 35 ml/min, ultrasound 50.00 % of 600 W
[22] = Run 10: water 14 ml/min, ultrasound 90.00 % of 600 W

Q: For CCC(=O)O[C@]1(C(=O)SCF)[C@H](C)C[C@H]2[C@@H]3C[C@H](F)C4=CC(=O)C=C[C@]4(C)[C@@]3(F)[C@@H](O)C[C@@]21C [fluticasone propionate], which “D10 particle size at 10% undersize” value [1, 3] is on record?
A: 1.07 μm

Q: What about the “D50 median particle size” value [1, 3] of the same molecule?
A: 4.95 μm

Q: And the “D90 particle size at 90% undersize” value [1, 3]?
A: 18.91 μm

Q: And the “UI uniformity index (100×D10/D90)” value [1, 3]?
A: 5.7%

Q: What about the “D10 particle size at 10% undersize” value [1, 4] of the same molecule?
A: 1.02 μm

Q: What about the “D50 median particle size” value [1, 4] of the same molecule?
A: 4.56 μm

Q: And the “D90 particle size at 90% undersize” value [1, 4]?
A: 14.29 μm

Q: And the “UI uniformity index (100×D10/D90)” value [1, 4]?
A: 7.1%

Q: And the “D10 particle size at 10% undersize” value [1, 5]?
A: 1 μm

Q: What about the “D50 median particle size” value [1, 5] of the same molecule?
A: 4.2 μm

Q: And the “D90 particle size at 90% undersize” value [1, 5]?
A: 18.3 μm

Q: What about the “UI uniformity index (100×D10/D90)” value [1, 5] of the same molecule?
A: 5.3%

Q: What about the “D10 particle size at 10% undersize” value [1, 6] of the same molecule?
A: 2.62 μm

Q: And the “D50 median particle size” value [1, 6]?
A: 7.52 μm

Q: What about the “D90 particle size at 90% undersize” value [1, 6] of the same molecule?
A: 20.83 μm

Q: And the “UI uniformity index (100×D10/D90)” value [1, 6]?
A: 12.6%

Q: What about the “D10 particle size at 10% undersize” value [1, 7] of the same molecule?
A: 1.05 μm

Q: What about the “D50 median particle size” value [1, 7] of the same molecule?
A: 4.3 μm

Q: What about the “D90 particle size at 90% undersize” value [1, 7] of the same molecule?
A: 14.66 μm

Q: And the “UI uniformity index (100×D10/D90)” value [1, 7]?
A: 7.2%

Q: And the “D10 particle size at 10% undersize” value [1, 8]?
A: 0.89 μm

Q: And the “D50 median particle size” value [1, 8]?
A: 5.28 μm

Q: What about the “D90 particle size at 90% undersize” value [1, 8] of the same molecule?
A: 17.16 μm

Q: What about the “UI uniformity index (100×D10/D90)” value [1, 8] of the same molecule?
A: 5.1%

Q: What about the “D10 particle size at 10% undersize” value [1, 9] of the same molecule?
A: 2.32 μm

Q: And the “D50 median particle size” value [1, 9]?
A: 9.34 μm

Q: And the “D90 particle size at 90% undersize” value [1, 9]?
A: 28.97 μm

Q: What about the “UI uniformity index (100×D10/D90)” value [1, 9] of the same molecule?
A: 8%

Q: And the “D10 particle size at 10% undersize” value [1, 10]?
A: 1.06 μm

Q: And the “D50 median particle size” value [1, 10]?
A: 3.46 μm

Q: And the “D90 particle size at 90% undersize” value [1, 10]?
A: 9.33 μm

Q: What about the “UI uniformity index (100×D10/D90)” value [1, 10] of the same molecule?
A: 11.4%

Q: And the “D10 particle size at 10% undersize” value [1, 11]?
A: 0.97 μm

Q: What about the “D50 median particle size” value [1, 11] of the same molecule?
A: 3.67 μm

Q: And the “D90 particle size at 90% undersize” value [1, 11]?
A: 11.47 μm

Q: What about the “UI uniformity index (100×D10/D90)” value [1, 11] of the same molecule?
A: 8.5%

Q: And the “D10 particle size at 10% undersize” value [1, 12]?
A: 1.48 μm

Q: What about the “D50 median particle size” value [1, 12] of the same molecule?
A: 9.79 μm

Q: And the “D90 particle size at 90% undersize” value [1, 12]?
A: 37.62 μm

Q: What about the “UI uniformity index (100×D10/D90)” value [1, 12] of the same molecule?
A: 3.9%

Q: What does the source list for OCc1cc(C(O)CNCCCCCCOCCCCc2ccccc2)ccc1O (centres unmarked) [salmeterol xinafoate]?
A: D10 particle size at 10% undersize [2, 13]: 1.6 μm; D50 median particle size [2, 13]: 10.1 μm; D90 particle size at 90% undersize [2, 13]: 24.78 μm; UI uniformity index (100×D10/D90) [2, 13]: 6.46%; D10 particle size at 10% undersize [2, 14]: 0.48 μm; D50 median particle size [2, 14]: 3.9 μm; D90 particle size at 90% undersize [2, 14]: 10.21 μm; UI uniformity index (100×D10/D90) [2, 14]: 4.70%; D10 particle size at 10% undersize [2, 15]: 0.64 μm; D50 median particle size [2, 15]: 4.24 μm; D90 particle size at 90% undersize [2, 15]: 14.45 μm; UI uniformity index (100×D10/D90) [2, 15]: 4.42%; D10 particle size at 10% undersize [2, 16]: 0.53 μm; D50 median particle size [2, 16]: 4.29 μm; D90 particle size at 90% undersize [2, 16]: 17.62 μm; UI uniformity index (100×D10/D90) [2, 16]: 3.01%; D10 particle size at 10% undersize [2, 17]: 0.39 μm; D50 median particle size [2, 17]: 4.74 μm; D90 particle size at 90% undersize [2, 17]: 16.8 μm; UI uniformity index (100×D10/D90) [2, 17]: 2.32%; D10 particle size at 10% undersize [2, 18]: 2.17 μm; D50 median particle size [2, 18]: 11.09 μm; D90 particle size at 90% undersize [2, 18]: 23.37 μm; UI uniformity index (100×D10/D90) [2, 18]: 9.28%; D10 particle size at 10% undersize [2, 19]: 1.08 μm; D50 median particle size [2, 19]: 4.75 μm; D90 particle size at 90% undersize [2, 19]: 13.45 μm; UI uniformity index (100×D10/D90) [2, 19]: 8.03%; D10 particle size at 10% undersize [2, 20]: 1.63 μm; D50 median particle size [2, 20]: 6.37 μm; D90 particle size at 90% undersize [2, 20]: 20.37 μm; UI uniformity index (100×D10/D90) [2, 20]: 8.00%; D10 particle size at 10% undersize [2, 21]: 1.88 μm; D50 median particle size [2, 21]: 4.99 μm; D90 particle size at 90% undersize [2, 21]: 11.76 μm; UI uniformity index (100×D10/D90) [2, 21]: 15.99%; D10 particle size at 10% undersize [2, 22]: 1.77 μm; D50 median particle size [2, 22]: 7.86 μm; D90 particle size at 90% undersize [2, 22]: 24.96 μm; UI uniformity index (100×D10/D90) [2, 22]: 7.09%
